Laboratory results: PubChem BioAssay (NCI)
Values joined by “and” are separate entries in the source; they are usually repeats but may differ in a detail not shown here. Equal entries are not always repeated.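 Briefly, cells in 96-well plates were exposed to five compound concentrations for 48 h, and endpoints were estimated by linear interpolation. The concentration for 50% growth inhibition is given as GI50. At the TGI there is no net growth.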

Legend:
Experiment in all cases: growth of human tumour cells (NCI), 48 h
[1] = tested on: ACHN renal
[2] = tested on: BT-549 breast
[3] = tested on: HCC-2998 colon
[4] = tested on: HOP-92 NSCLC
[5] = tested on: M14 melanoma
[6] = tested on: NCI/ADR-RES ovarian
[7] = tested on: OVCAR-5 ovarian
[8] = tested on: SF-295 CNS
[9] = tested on: SK-MEL-28 melanoma
[10] = tested on: UACC-62 melanoma

| Compound | TGI [1] | TGI [2] | TGI [3] | TGI [4] | TGI [5] | TGI [6] [µM] | TGI [7] [µM] | TGI [8] | TGI [9] [µM] | GI50 [1] [µM] | GI50 [2] [µM] | GI50 [3] [µM] | GI50 [4] [µM] | GI50 [5] [µM] | GI50 [6] [µM] | GI50 [7] [µM] | GI50 [8] [µM] | GI50 [9] [µM] | GI50 [10] [µM] | TGI [10] |
| --- | --- | --- | --- | --- | --- | --- | --- | --- | --- | --- | --- | --- | --- | --- | --- | --- | --- | --- | --- | --- |
| Nc1cc(N)cc(Cc2ccccc2)c1 | > 100 µM | > 100 µM | > 100 µM | > 100 µM | > 100 µM | > 100 | > 100 | > 100 µM | > 100 | – | – | – | – | – | – | – | – | – | – | – |
| COc1ccc(C2SCC(=O)N2NC(=O)C(O)c2ccccc2)cc1 (centres undefined) | > 100 µM | > 100 µM | > 100 µM | > 100 µM | > 100 µM | > 100 | > 100 | > 100 µM | > 100 | > 100 | > 100 | > 100 | > 100 | > 100 | > 100 | > 100 | > 100 | > 100 | > 100 | > 100 µM |
| Cc1ccc(N(/C=C/C(=O)C(F)(F)F)CC(=O)c2ccc(Cl)c(Cl)c2)cc1 | 24.6 µM | 11.2 µM | 14.8 µM | 21.1 µM | 18.6 µM | 13.4 | 20.6 | 16.6 µM | 23.2 | 12.2 | 2.22 | 1.45 | 8.77 | 4.79 | 2.76 | 4.7 | 4.24 | 11.2 | 5.57 | 19 µM |
| c1ccc2c(-c3cnn4cc(-c5ccc(N6CCNCC6)cc5)cnc34)ccnc2c1 | 2.29 µM | 3.13 µM | 2.74 µM | 3.03 µM | 0.962 µM | 3.42 | 2.24 | 2.48 µM | 0.35 | 1.09 | 1.6 | 1.36 | 1.59 | 0.297 | 1.72 | 0.806 | 1.13 | 0.182 | 1.41 | 2.78 µM |
| Clc1ccc(N/N=C(\c2ccccc2)c2ccccn2)nc1 | > 36.8 µM and 12.5 µM | 25 µM and 29.5 µM | > 48.4 µM and 21.1 µM | > 66.2 µM and 10.2 µM | 14.4 µM and 16.1 µM | – | > 100 | > 53.6 µM and 17.7 µM | > 100 | 0.0619 | 0.474 | 0.341 | 0.445 | 0.0879 | 0.109 | 0.234 | 0.506 | 0.335 | 0.288 | > 36.6 µM and 15.5 µM |
| CN(C)CCCN1c2ccc(O)cc2Sc2ccc(Cl)cc21 | 28.1 µM | 25.2 µM | – | 17.2 µM | 19.7 µM | 30.1 | 30.8 | 29 µM | 24.7 | – | – | – | – | – | – | – | – | – | – | 21.8 µM |
| CCOC(=O)C(O)Cc1cnc2ccccc2n1 (centres undefined) | > 100 µM | > 100 µM | > 100 µM | > 100 µM | > 100 µM | > 100 | > 100 | – | > 100 | – | – | – | – | – | – | – | – | – | – | > 100 µM |
| C[C@@H]1CC[C@@H]2[C@@H]1[C@H](OC(=O)c1ccc3ccccc3c1)[C@]1(C3CCCCC3)C[C@@H](OC(=O)CO)[C@@]2(C)O1 | – | 1.56 µM | 28.1 µM | 15.4 µM | 30.2 µM | 19.4 | 30 | 25.3 µM | 28.5 | – | 0.0714 | 11.8 | 3.15 | 13.2 | 0.543 | 14.8 | 11.6 | 13.9 | 14.3 | 28.5 µM |
| Cc1ccc(S(=O)(=O)NNC(C[N+](=O)[O-])c2ccccc2)cc1 (centres undefined) | 40.9 µM | 34.3 µM | – | > 100 µM | > 100 µM | > 100 | > 100 | 49.2 µM | – | – | – | – | – | – | – | – | – | – | – | 85.3 µM |
| OCC#CCCCCOCC#Cc1ccccc1C#CCOCCCCC#CCO | 58.7 µM | 41.2 µM | – | 62 µM | > 100 µM | 57.9 | > 100 | 56.5 µM | 51.6 | 21.7 | 16.8 | – | 28.8 | 31.2 | 23.6 | 48.4 | 19.2 | 20.1 | 18.4 | 34.3 µM |
| COc1cccc2c1C(=O)c1c(O)c3c(c(O)c1C2=O)C[C@@](O)(C(C)=O)C[C@@H]3OC1CC(O)C(O)C(C)O1 (some centres undefined) | 2.41 µM and 2.85 µM | 20.1 µM | 12.8 µM | 9.67 µM and 18.8 µM | 18 µM | – | – | – | 25 | 0.397 | – | – | – | 2.7 | 0.000214 | – | – | – | – | – |
| NC(=S)N/N=C/c1ccc(OC(=O)COc2ccccc2)cn1 | > 100 µM | > 100 µM | > 100 µM | – | 12.1 µM | > 100 | > 100 | > 100 µM | > 100 | 3.65 | 26.4 | 8.37 | – | 3.57 | 4.14 | 49.7 | 20.7 | 44.4 | 4.67 | > 100 µM |
| N#CSCC1CC(O)(c2ccccc2)CC(c2ccc(Cl)cc2)O1 (centres undefined) | 8.25 µM | 4.83 µM | 21.5 µM | 5.58 µM | 3.28 µM | – | 26 | 12.7 µM | 4.57 | 2.78 | 2.35 | 8.56 | 2.21 | 1.75 | – | 12.8 | 3.28 | 1.84 | 3.31 | 10.9 µM |
| COc1ccccc1Nc1nc2ccccc2c2occc12 | 24.8 µM | 32.1 µM | – | > 50 µM | 40.4 µM | 32.4 | 39.2 | > 50 µM | 40.2 | 10.6 | 15.3 | – | 24.1 | 17.3 | 13.8 | 19.4 | 20.1 | 8.3 | 10.1 | 26.4 µM |
| Cc1ccc(S(=O)(=O)N[C@@H](Cc2ccccc2)C(=O)CCl)cc1 | 28.1 µM | 24 µM | 21.8 µM | 12 µM | 63.1 µM | 65.7 | 65.9 | 41.7 µM | 53.7 | 13 | 6.64 | 1.03 | 2.19 | 19.9 | 22.3 | 13.7 | – | – | – | – |
